Target: T1, bovine serum albumin (BSA) (Bos taurus, UniProt P02769)
T1 construct: gene ALB; BSA fraction V (Sigma), 583 amino acid residues
Experiment: intrinsic fluorescence quenching titration (static; Kb at […] K, pH […], n = […]), supported by UV-vis, CD and FRET
Type: binding
Details: read-out: Kb (10^6 M^-1) (converted)

T1 sequence (P02769 25-607): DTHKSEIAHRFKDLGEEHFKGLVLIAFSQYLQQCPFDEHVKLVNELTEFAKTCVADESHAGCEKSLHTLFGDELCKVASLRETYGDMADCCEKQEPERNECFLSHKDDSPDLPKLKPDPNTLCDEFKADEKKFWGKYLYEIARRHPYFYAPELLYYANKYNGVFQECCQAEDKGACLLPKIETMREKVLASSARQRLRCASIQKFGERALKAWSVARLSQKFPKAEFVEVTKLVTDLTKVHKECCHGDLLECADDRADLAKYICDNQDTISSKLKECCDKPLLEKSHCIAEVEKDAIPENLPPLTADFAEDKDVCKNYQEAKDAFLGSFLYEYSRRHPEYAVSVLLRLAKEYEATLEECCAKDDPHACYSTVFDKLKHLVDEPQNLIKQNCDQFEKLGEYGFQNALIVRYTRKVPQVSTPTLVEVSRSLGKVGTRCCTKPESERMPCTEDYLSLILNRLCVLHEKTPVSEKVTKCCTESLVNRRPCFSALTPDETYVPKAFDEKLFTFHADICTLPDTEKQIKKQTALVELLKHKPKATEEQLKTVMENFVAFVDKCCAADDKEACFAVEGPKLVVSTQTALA

- Kd: 813 nM
Structure (SMILES): COc1ccc(-c2cc(=O)c3c(O)c(OC)c(OC)cc3o2)cc1O [eupatorin]

Reference: publication PMC3742238, “Characterization of the Interaction between Eupatorin and Bovine Serum Albumin by Spectroscopic and Molecular Modeling Methods” (International Journal of Molecular Sciences, 2013)
